From patent US6921821B2, “Antagonists of melanin concentrating hormone receptor” (Abbott Laboratories, priority 2002, dated 2005) come the findings set out here.

Counter-ions that a name gives are not always drawn.

T1 sequence (Q8JZL2 whole entry): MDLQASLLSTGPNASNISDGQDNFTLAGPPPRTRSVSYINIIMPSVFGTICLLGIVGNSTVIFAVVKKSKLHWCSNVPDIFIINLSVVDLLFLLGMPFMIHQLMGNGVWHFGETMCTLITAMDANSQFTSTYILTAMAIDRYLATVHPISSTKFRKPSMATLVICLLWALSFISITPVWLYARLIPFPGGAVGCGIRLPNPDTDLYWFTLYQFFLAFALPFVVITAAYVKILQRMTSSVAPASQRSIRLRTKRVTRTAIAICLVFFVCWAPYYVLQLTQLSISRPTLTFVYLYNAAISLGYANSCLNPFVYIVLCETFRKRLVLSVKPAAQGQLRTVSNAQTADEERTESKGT

This experiment concerns the target T1, murine MCHR (Mus musculus, UniProt Q8JZL2).
T1 construct: expressed in transfected cells; host or cells: HEK293
In words: Assay for release of intracellular calcium (FLIPR, Fluo-4), inhibition of MCH-induced Ca++ flux. As to conditions: test compound at a dose of 10 μM, HEK293 cells expressing the murine MCHR, read-out: inhibition of MCH (MCH induced Ca++ flux / fluorescence). The class given is cell-based. On the procedure: Assay for Release of Intracellular Calcium
Activation of the melanin concentrating hormone receptor (MCHR) by MCH induces the release of Ca^++ from intracellular stores. This intracellular calcium release is measured using a fluorometric imaging plate reader (FLIPR™, Molecular Devices Corp.) in conjunction with the Ca^++-sensitive dye Fluo-4. Release of Ca^++ from intracellular stores causes an increase in fluorescence of the dye that is proportional to Ca^++ concentration. Briefly, the assays are performed as follows. HEK293 cells expressing the murine MCHR are plated overnight at 50,000 cells/well in 96-well plates. The following day, culture medium is removed and replaced with 100 μl/well of D-PBS (+glucose and sodium pyruvate) containing 2.5 μM Fluo-4AM (Molecular Probes), 0.01% Pluronic F-127 and 2.5 mM probenecid. Cells are loaded with the Fluo-4 dye for at least one hour at room temp. After loading, the cells are washed gently to remove extracellular dye and 100 μl of D-PBS (+glucose and sodium pyruvate) is added to each well. Test compounds are prepared at 40 μM in 4% DMSO. The cell plate is placed in the FLIPR™ and 50 μl/well of test compound is delivered. The calcium signal is followed for 3 minutes to assay for potential agonist activity by the test compounds. Then 50 μl/well of 12 nM mouse MCH (in D-PBS containing 0.1% BSA) is added and the ligand-induced calcium signal is followed for an additional 3 minutes. Antagonist activity as determined by the test compounds ability to inhibit MCH induced Ca^++ flux is calculated as % inhibition as described by the following formula: % inhibition=[1−((fTC−fB)÷(fMCH−fB))]×100, where fTC=MCH-induced fluorescence in the presence of test compound; fMCH=MCH-induced fluorescence in the absence of test compound; and fB=Baseline fluorescence.
MCH (3 nM) usually elicits a response of 30,000-40,000 relative fluorescence units (RFU) with a baseline of about 1000 RFU. Fluo-4 fluorescence is measured at 488 nm, with an exposure of 0.40 sec. and F-stop=2.0 and the laser set at 0.40-0.60 W constant light output.
(In general: Calcium assays in cells follow changes in intracellular calcium, usually with a dye or a luminescent sensor.)
Take `O=c1cc(NC2CCN(Cc3ccc4ccccc4c3)CC2)c2cc(Cl)ccc2o1` [II-2, 6—Chloro-4-(1-naphthalen-2-ylmethyl-piperidin-4-ylamino)-chromen-2-one]: the inhibition at 10 µM is at least 50%.

Consider `Cc1ccc2oc(=O)cc(NC3CCN(Cc4ccc5c(c4)OCO5)CC3)c2c1` [II-3, 4-(1-Benzo[1,3]dioxol-5-ylmethyl-piperidin-4-ylamino)-6-methyl-chromen-2-one], for which the inhibition at 10 µM is at least 50%.

For `O=c1cc(NC2CCN(Cc3ccc4c(c3)OCO4)CC2)c2cc(Cl)ccc2o1` [II-4, 4-(1-Benzo[1,3]dioxol-5ylmethyl-piperidin-4-ylamino)-6-chloro-chromen-2-one], the inhibition at 10 µM was at least 50%.

Take `O=c1cc(NC2CCN(Cc3cccc4ccccc34)CC2)c2cc(Cl)ccc2o1` [II-5, 6-Chloro-4-(1-naphthalen-1-ylmethyl-piperidin-4-ylamino)-chromen-2-one]: the inhibition at 10 µM was at least 50%.

Turning to `O=c1cc(NC2CCN(Cc3csc4ccccc34)CC2)c2cc(Cl)ccc2o1` [II-6, 4-(1-Benzo[b]thiophen-3-ylmethyl-piperidin-4-ylamino)-6-chloro-chromen-2-one], the inhibition at 10 µM is at least 50%.

On to `O=c1cc(NC2CCN(Cc3cc4ccccc4o3)CC2)c2cc(Cl)ccc2o1` [II-18, 4-(1-Benzofuran-2-ylmethyl-piperidin-4-ylamino)-6-chloro-chromen-2-one], for which the inhibition at 10 µM was at least 50%.

Turning to `COc1ccc2oc(=O)cc(NC3CCN(Cc4ccc5ccccc5c4)CC3)c2c1` [II-19, 6-Methoxy-4-(1-naphthalen-2-ylmethyl-piperidin-4-ylamino)-chromen-2-one trifluoroacetate], the inhibition at 10 µM is at least 50%.

Regarding `COc1ccc2oc(=O)cc(NC3CCN(Cc4ccc(C)cc4C)CC3)c2c1` [II-25, 4-[1-(2,4-Dimethyl-benzyl)-piperidin-4-ylamino]-6-methoxy-chromen-2-one trifluoroacetate], the inhibition at 10 µM was at least 50%.

Regarding `COc1ccc2oc(=O)c(F)c(NC3CCN(Cc4ccc5c(c4)OCO5)CC3)c2c1` [II-26, 4-(1-Benzo{1,3}dioxol-5-ylmethyl-piperidin-4-ylamino)-3-fluoro-6-methoxychromene-2-one], the inhibition at 10 µM is at least 50%.

In the case of `COc1ccc2oc(=O)cc(NC3CCN(Cc4ccc5ccc(C)cc5c4)CC3)c2c1` [II-27, 6-Methoxy-4-[1-(7-methyl-naphthalen-2-ylmethyl)-piperidin-4-ylamino]-chromen-2-one trifluoroacetate], the inhibition at 10 µM is at least 50%.

For the molecule `C[C@H](c1ccc2c(c1)OCO2)N1CCC(Nc2cc(=O)oc3ccc(Cl)cc23)CC1` [II-28, 4-[1-(1-Benzo[1,3]dioxol-5-yl-ethyl)-piperidin-4-ylamino]-6-chloro-chromen-2-one], the inhibition at 10 µM was at least 50%.

Turning to `COc1ccc2oc(=O)cc(NC3CCN(Cc4ccc(C)c(C)c4)CC3)c2c1` [II-29, 4-[1-(3,4-Dimethyl-benzyl)-piperidin-4-ylamino]-6-methoxy-chromen-2-one trifluoroacetate], the inhibition at 10 µM is at least 50%.

On to `O=c1cc(NC2CCN(Cc3ccc4cc[nH]c4c3)CC2)c2cc(Cl)ccc2o1` [II-31, 6-Chloro-4-[1-(1H-indol-6-ylmethyl)-piperidin-4-ylamino]-chromen-2-one], for which the inhibition at 10 µM was at least 50%.

Consider `O=c1cc(NC2CCN(Cc3ccc4ccccc4c3)CC2)c2cc(OC(F)F)ccc2o1` [II-32, 6-Difluoromethoxy-4-(1-naphthalen-2-ylmethyl-piperidin-4-ylamino)-chromen-2-one], for which the inhibition at 10 µM was at least 50%.

Turning to `CCn1ccc2cc(CN3CCC(Nc4cc(=O)oc5ccc(OC)cc45)CC3)ccc21` [II-33, 6-Methoxy-4-[N-ethylindole-5-ylmethyl-piperidin-4-ylamino]-chromen-2-one], the inhibition at 10 µM is at least 50%.

Regarding `COc1ccc2oc(=O)cc(NC3CCN(Cc4ccc(C)cc4)CC3)c2c1` [II-34, 6-Methoxy-4-[1-(4-methyl-benzyl)-piperidin-4-ylamino]-chromen-2-one trifluoroacetate], the inhibition at 10 µM is at least 50%.

Regarding `C=Cc1ccc2oc(=O)cc(NC3CCN(Cc4ccc5c(c4)OCO5)CC3)c2c1` [II-35, 4-(1-Benzo[1,3]dioxol-5-ylmethyl-piperidin-4-ylamino)-6-vinyl-chromen-2-one], the inhibition at 10 µM is at least 50%.

`O=c1cc(NC2CCN(Cc3ccc4ccoc4c3)CC2)c2cc(Cl)ccc2o1` [II-36, 4-(1-Benzofuran-6-ylmethyl-piperidin-4-ylamino)-6-chloro-chromen-2-one]: the inhibition at 10 µM is at least 50%.

On to `COc1ccc2oc(=O)cc(NC3CCN(Cc4ccc(OC)c(C)c4)CC3)c2c1` [II-37, 6-Methoxy-4-[1-(4-methoxy-3-methyl-benzyl)-piperidin-4-ylamino]-chromen-2-one trifluoroacetate], for which the inhibition at 10 µM was at least 50%.

In the case of `COc1ccc(CN2CCC(Nc3cc(=O)oc4ccc(OC)cc34)CC2)cc1` [II-39, 6-Methoxy-4-[1-(4-methoxy-benzyl)-piperidin-4-ylamino]-chromen-2-one trifluoroacetate], the inhibition at 10 µM was at least 50%.

With `O=c1cc(NC2CCN(Cc3ccc4ncccc4c3)CC2)c2cc(Cl)ccc2o1` [II-40, 6-Chloro-4-(1-quinolin-6-ylmethyl-piperidin-4-ylamino)-chromen-2-one], the inhibition at 10 µM was at least 50%.

Consider `O=c1cc(NC2CCN(Cc3ccc4c(c3)OCO4)CC2)c2cc(Cl)cc(Br)c2o1` [II-41, 4-(1-Benzo[1,3]dioxol-5-ylmethyl-piperidin-4-ylamino)-8-bromo-6-chloro-chromen-2-one], for which the inhibition at 10 µM was at least 50%.

For `CC(=O)Nc1c(NC2CCN(Cc3ccc4c(c3)OCO4)CC2)c2cc(Cl)ccc2oc1=O` [II-42, N-[4-(1-Benzo[1,3]dioxol-5-ylmethyl-piperidin-4-ylamino)-6-chloro-2-oxo-2H-chromen-3-yl]-acetamide], the inhibition at 10 µM is at least 50%.

Take `COc1ccc2oc(=O)cc(NC3CCN(Cc4ccc(OC(F)F)cc4)CC3)c2c1` [II-43, 4-[1-(4-Difluoromethoxy-benzyl)-piperidin-4-ylamino]-6-methoxy-chromen-2-one trifluoroacetate]: the inhibition at 10 µM is at least 50%.

As to `COc1ccc2oc(=O)cc(NC3CCN(Cc4ccc5ocnc5c4)CC3)c2c1` [II-44, 4-(1-Benzooxazol-5-ylmethyl-piperidin-4-ylamino)-6-methoxy-chromen-2-one], the inhibition at 10 µM is at least 50%.

Turning to `C=Cc1ccc2oc(=O)cc(NC3CCN(Cc4ccc(C)c(C)c4)CC3)c2c1` [II-46, 4-{1-(3,4-Dimethyl-benzyl)-piperidin-4-ylamino}-6-vinyl-chromen-2-one], the inhibition at 10 µM is at least 50%.

Turning to `COc1ccc2oc(=O)cc(NC3CCN(Cc4ccc(OCCCN5CCCCC5)c(F)c4)CC3)c2c1` [II-47, 4-{1-[3-Fluoro-4-(3-piperidin-1-yl-propoxy)-benzyl]-piperidin-4-ylamino}-6-methoxy-chromen-2-one; Double TFA Salt], the inhibition at 10 µM was at least 50%.

Take `CC(=O)c1ccc(CN2CCC(Nc3cc(=O)oc4ccc(Cl)cc34)CC2)cc1` [II-48, 4-[1-(4-Acetyl-benzyl)-piperidin-4-ylamino]-6-chloro-chromen-2-one]: the inhibition at 10 µM is at least 50%.

As for `O=c1cc(NC2CCN(Cc3ccc(OCCCN4CCCCC4)cc3)CC2)c2cc(Cl)ccc2o1` [II-49, 6-Chloro-4-{1-[4-(3-piperidin-1-yl-propoxy)-benzyl]-piperidin-4-ylamino}-chromen-2-one; Double TFA Salt], the inhibition at 10 µM is at least 50%.

For the molecule `CCCCOc1ccc(CN2CCC(Nc3cc(=O)oc4ccc(OC)cc34)CC2)cc1` [II-50, 4-[1-(4-Butoxy-benzyl)-piperidin-4-ylamino]-6methoxy-chromen-2-one trifluoroacetate], the inhibition at 10 µM was at least 50%.

Turning to `O=c1cc(NC2CCN(Cc3ccc4c(c3)OCCCO4)CC2)c2cc(Cl)ccc2o1` [II-51, 6-Chloro-4-[1-(3,4-dihydro-2H-benzo[b][1,4]dioxepin-7-ylmethyl)-piperidin-4-ylamino]-chromen-2-one], the inhibition at 10 µM is at least 50%.

On to `COc1ccc2oc(=O)cc(NC3CCN(Cc4ccc5[nH]ccc5c4)CC3)c2c1` [II-54, 4-[1-(1H-Indol-5-ylmethyl)-piperidin-4-ylamino]-6-methoxy-chromen-2-one], for which the inhibition at 10 µM was at least 50%.

`O=C(NCCN1CCCC1)c1ccc(CN2CCC(Nc3cc(=O)oc4ccc(Cl)cc34)CC2)cc1` [II-55, 4-[4-(6-Chloro-2-oxo-2H-chromen-4-ylamino)-piperidin-1-ylmethyl]-N-(2-pyrrolidin-1-yl-ethyl)-benzamide; Double TFA Salt]: the inhibition at 10 µM was at least 50%.
